In patent US11535621B2, “Heterobicyclic amides as inhibitors of CD38” (Ribon Therapeutics, Inc., priority 2019, dated 2022):

What follows are compounds tested against Human CD38 (Homo sapiens (Human), UniProt P28907) (assay: CD38 enzyme assay). Settings: 2 nM CD38, NAD+ substrate, absorbance at 405 nm.
Human CD38, sequence (P28907 whole entry): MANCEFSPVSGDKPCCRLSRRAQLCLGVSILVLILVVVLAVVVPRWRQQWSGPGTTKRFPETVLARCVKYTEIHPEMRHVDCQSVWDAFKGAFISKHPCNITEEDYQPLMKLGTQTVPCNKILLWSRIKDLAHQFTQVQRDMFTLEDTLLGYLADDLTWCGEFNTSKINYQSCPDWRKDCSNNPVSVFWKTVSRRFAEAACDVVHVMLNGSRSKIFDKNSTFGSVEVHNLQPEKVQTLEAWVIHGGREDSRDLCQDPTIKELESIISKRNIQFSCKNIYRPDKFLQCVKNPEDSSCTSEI
Assay type: biochemical
In short: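 IC50 values come from fitting % inhibition against compound concentration with a 4-parameter logistic, or a 3-parameter fit with top/bottom fixed at 100/0 or Hill at 1. Inhibition is scaled between DMSO wells and positive-control wells treated with a quinolinone CD38 inhibitor.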
In the case of `COCCO[C@H]1CC[C@H](NC(=O)c2nc(-n3ccnc3)nc3cc[nH]c23)CC1` [Example 7, 2-(1H-Imidazol-1-yl)-N-((1r,4r)-4-(2-methoxyethoxy)cyclohexyl)-5H-pyrrolo[3,2-d]pyrimidine-4-carboxamide], the IC50 is reported as 0.01 to 0.1 µM. `C[C@@H](O)[C@H]1CC[C@H](NC(=O)c2nc(-n3ccnc3)cc3ccsc23)CC1` [Example 264a, N-((1R,4r)-4-((R)-1-hydroxyethyl)cyclohexyl)-5-(1H-imidazol-1-yl)thieno[2,3-c]pyridine-7-carboxamide] gave an IC50 of less than 0.01 µM. `C[C@H](O)[C@H]1CC[C@H](NC(=O)c2nc(-n3ccnc3)cc3ccsc23)CC1` [Example 264b, N-((1S,4r)-4-((S)-1-hydroxyethyl)cyclohexyl)-5-(1H-imidazol-1-yl)thieno[2,3-c]pyridine-7-carboxamide] showed an IC50 of 0.01 to 0.1 µM. Compound `CC(C)(O)[C@H]1C[C@H](NC(=O)c2nc(-n3ccnc3)nc3cn[nH]c23)C1` [Example 265, N-((1r,3r)-3-(2-hydroxypropan-2-yl)cyclobutyl)-5-(1H-imidazol-1-yl)-1H-pyrazolo[4,3-d]pyrimidine-7-carboxamide] has an IC50 of 0.01 to 0.1 µM. Compound `CC(C)(O)[C@H]1C[C@H](NC(=O)c2nc(-n3ccnc3)cc3cn[nH]c23)C1` [Example 266, N-((1r,3r)-3-(2-hydroxypropan-2-yl)cyclobutyl)-5-(1H-imidazol-1-yl)-1H-pyrazolo[3,4-c]pyridine-7-carboxamide] has an IC50 of 0.01 to 0.1 µM. `COCCO[C@H]1CC[C@H](NC(=O)c2nc(-n3ccnc3)nc3c(C)c[nH]c23)CC1` [Example 268, 2-(1H-imidazol-1-yl)-N-((1r,4r)-4-(2-methoxyethoxy)cyclohexyl)-7-methyl-5H-pyrrolo[3,2-d]pyrimidine-4-carboxamide] showed an IC50 of 0.01 to 0.1 µM. `N#CC1CN([C@H]2CC[C@H](NC(=O)c3nc(-n4ccnc4)cc4cn[nH]c34)CC2)C1` [Example 269, N-((1r,4r)-4-(3-cyanoazetidin-1-yl)cyclohexyl)-5-(1H-imidazol-1-yl)-1H-pyrazolo[3,4-c]pyridine-7-carboxamide] showed an IC50 of 0.01 to 0.1 µM. `O=C(N[C@H]1CC[C@H](NCC(F)(F)F)CC1)c1nc(-n2ccnc2)cc2ccsc12` [Example 270, 5-(1H-imidazol-1-yl)-N-((1r,4r)-4-((2,2,2-trifluoroethyl)amino)cyclohexyl)thieno[2,3-c]pyridine-7-carboxamide] was tested, and the IC50 was 0.01 to 0.1 µM. Work on `O=C(N[C@H]1CC[C@H](CNCC(F)(F)F)CC1)c1nc(-n2ccnc2)nc2cn[nH]c12` [Example 271] yielded an IC50 of 0.01 to 0.1 µM. With `CC(C)(N[C@H]1CC[C@H](NC(=O)c2nc(-n3ccnc3)nc3cc[nH]c23)CC1)C(F)(F)F` [Example 272, 2-(1H-imidazol-1-yl)-N-((1r,4r)-4-((1,1,1-trifluoro-2-methylpropan-2-yl)amino)cyclohexyl)-5H-pyrrolo[3,2-d]pyrimidine-4-carboxamide] the IC50 was 0.01 to 0.1 µM. `CC(C)(N[C@H]1CC[C@H](NC(=O)c2nc(-n3ccnc3)nc3cc[nH]c23)CC1)C(F)F` [Example 273, N-((1r,4r)-4-((1,1-difluoro-2-methylpropan-2-yl)amino)cyclohexyl)-2-(1H-imidazol-1-yl)-5H-pyrrolo[3,2-d]pyrimidine-4-carboxamide] was tested, and the IC50 was 0.01 to 0.1 µM. For `C[C@]1(NCC(F)(F)F)CC[C@@H](NC(=O)c2nc(-n3ccnc3)nc3cn[nH]c23)CC1` [Example 274, 5-(1H-imidazol-1-yl)-N-((1s,4s)-4-methyl-4-((2,2,2-trifluoroethyl)amino)cyclohexyl)-1H-pyrazolo[4,3-d]pyrimidine-7-carboxamide], the IC50 was 0.01 to 0.1 µM. `C[C@]1(NCC(F)(F)F)CC[C@H](NC(=O)c2nc(-n3ccnc3)nc3cn[nH]c23)CC1` [Example 275, 5-(1H-imidazol-1-yl)-N-((1r,4r)-4-methyl-4-((2,2,2-trifluoroethyl)amino)cyclohexyl)-1H-pyrazolo[4,3-d]pyrimidine-7-carboxamide] was tested, and the IC50 was 0.1 to 1 µM. Work on `CC(C)(N[C@H]1CC[C@H](NC(=O)c2nc(-n3ccnc3)nc3cn[nH]c23)CC1)C(F)(F)F` [Example 276, 5-(1H-imidazol-1-yl)-N-((1r,4r)-4-((1,1,1-trifluoro-2-methylpropan-2-yl)amino)cyclohexyl)-1H-pyrazolo[4,3-d]pyrimidine-7-carboxamide] yielded an IC50 of 0.01 to 0.1 µM. With `CC(C)(N[C@H]1CC[C@@H](NC(=O)c2nc(-n3ccnc3)nc3cn[nH]c23)CC1)C(F)(F)F` [Example 277, 5-(1H-imidazol-1-yl)-N-((1s,4s)-4-((1,1,1-trifluoro-2-methylpropan-2-yl)amino)cyclohexyl)-1H-pyrazolo[4,3-d]pyrimidine-7-carboxamide] the IC50 was 0.1 to 1 µM.

These compounds were tested on B16-F10 tumor (assay: Efficacy study in a B16F10 model (survival)). Settings: Example 7 300 mg/kg p.o. QD in combination with anti-mPD-L1 10 mg/kg i.p. QW; over vehicle or anti-mPD-L1 treated mice; p value <0.0001.
Assay type: in vivo, C57BL/6 mouse
Experimental: B16-F10 tumor cells (ATCC, Cat #CRL-6475) were maintained in vitro as a monolayer culture in DMEM medium (Gibco, Cat #11995-040) supplemented with 10% heat inactivated fetal bovine serum (Biological Industries, Cat #04-002-1A), 100 U/mL penicillin and 100 µg/mL streptomycin (Hyclone, Cat #SV30010) at 37° C. in an atmosphere of 5% CO2 in air. The tumor cells were routinely subcultured twice weekly by trypsin-EDTA (Gibco, Cat #25200-072) treatment. The cells growing to a confluency around 70%-80% were harvested and counted for tumor inoculation. The cultured B16-F10 cells were harvested, re-suspended in base medium at a density of 2×10^7 cells/mL with viability>90%. 6-8 weeks of Female C57BL/6 mouse (Shanghai LingChang Biotech Co., LTD) was inoculated subcutaneously at the right flank with 1×10^6 in 0.05 mL base medium for tumor development. Tumors were calipered in two dimensions to monitor growth as the mean volume approached the desired range. Tumor volume (TV) was calculated using the formula: TV=0.5 a×b2 where a and b are the long and short diameters of the tumor.
Mice were assigned into 4 groups with 12 mice per group. […] The tumor sizes were measured three times per week during the treatment. Survival was monitored with tumor volume exceeding 2000 mm3 as endpoint. […]
In the case of `COCCO[C@H]1CC[C@H](NC(=O)c2nc(-n3ccnc3)nc3cc[nH]c23)CC1` [Example 7, 2-(1H-Imidazol-1-yl)-N-((1r,4r)-4-(2-methoxyethoxy)cyclohexyl)-5H-pyrrolo[3,2-d]pyrimidine-4-carboxamide], the “percent survival of B16-F10 tumor bearing mice” value is reported as “significant survival benefit”.
